Source: article PMC10746158, “Archaeal GPN-loop GTPases involve a lock-switch-rock mechanism for GTP hydrolysis” (mBio, 2023)
pKd: −log10 of the molar value.

Molecular target: T1, SaGPN (Sulfolobus acidocaldarius, UniProt Q4J9A7)
T1 construct: gene Saci_1281; E. coli BL21(DE3) Rosetta; Y2-A240 built, 14 C-terminal residues disordered
T1 sequence (Q4J9A7 1-254): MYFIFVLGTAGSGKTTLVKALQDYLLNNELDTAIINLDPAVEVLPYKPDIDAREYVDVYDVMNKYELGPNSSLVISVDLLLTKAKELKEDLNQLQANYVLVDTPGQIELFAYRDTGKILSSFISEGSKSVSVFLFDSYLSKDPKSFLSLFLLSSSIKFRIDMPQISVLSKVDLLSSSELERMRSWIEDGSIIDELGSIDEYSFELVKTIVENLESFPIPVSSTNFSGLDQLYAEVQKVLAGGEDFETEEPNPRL
Assay: isothermal titration calorimetry
Format: binding

pKd	Compound
8.21	Nc1nc2c(ncn2[C@@H]2O[C@H](COP(=O)(O)OP(=O)(O)O)[C@@H](O)[C@H]2O)c(=O)[nH]1 [GDP]
8.66	Nc1nc2c(ncn2[C@@H]2O[C@H](COP(=O)(O)OP(=O)(O)OP(=O)(O)O)[C@@H](O)[C@H]2O)c(=O)[nH]1 [GTP]
7.66	Nc1nc2c(ncn2[C@@H]2O[C@H](COP(=O)(O)OP(=O)(O)NP(=O)(O)O)[C@@H](O)[C@H]2O)c(=O)[nH]1 [GppNHp]
